Here are results for twelve molecules from publication PMC8305768, “Design, Synthesis and Antiparasitic Evaluation of Click Phospholipids” (Molecules, 2021).

Structures can show the parent of a compound that is named as a salt.

Common to all, as to conditions: compounds 10 μM; miltefosine 10 μM or 1 μM
One series addresses T1, CYP2D6 (Homo sapiens, UniProt P10635).
T1 construct: purchased Corning Inc; host or cells: baculovirus-infected insect cells
The series is described as follows: Cytochrome P450 inhibition assay (P450-Glo) CYP2D6. The series is classed as in vitro ADME. The source says: (§1) Cytochrome (CYP) P450 inhibition assay: These assays made use of microsomal preparations of CYP450 (1A2, 2C9, 2C19, 2D6 and 3A4) from baculovirus-infected insect cells (Corning Inc., Corning, NY, USA) and cytochrome c reductase (and cytochrome b5 for CYP450 3A4). For detection of CYP450 activity, the luminescence-based P450-Glo (Promega Corp., Madison, WI, USA) assay system was used that contained a luminogenic CYP450 substrate, lyophilized luciferin detection reagent and reconstitution buffer. The substrates were luciferin derivatives of CYP450-specific substrates that produce (4S)-4,5-dihydro-2-(6-hydroxybenzothiazolyl)-4-thiazolecarboxylic acid (D-luciferin) after cleavage by CYP450 (CYP450 3A4, luciferin-IPA; CYP450 2C19, luciferin-H EGE; CYP450 2C9, luciferin-H; CYP450 2D6, luciferin-ME EGE; CYP450 1A2, luciferin-1A2). CYP450 reactions were initiated by addition of the NADPH regeneration system to the enzyme–substrate mixture with the luciferin detection reagent stopping the reaction and the D-luciferin being converted to oxyluciferin under the production of light being proportional to the CYP450 activity. The CYP450 assays were performed using the Tecan Fluent liquid-handling automation platform (Tecan Group Ltd., Mannedorf, Switzerland) in the 384-well assay format. Compounds were added into an empty 384-well plate (100 nL/well in 1% v/v DMSO) using the Echo 550 Liquid Handler followed by the addition of 5 μL/well of the CYP450/substrate mixture and incubation for 30 min at 37 °C, after which the reaction was initiated by the addition of the 5 μL/well NADPH regeneration system. After a further 30-min incubation at 37 °C, the CYP450 reaction was stopped and the luciferase reaction was simultaneously initiated by addition of 10 μL/well of luciferin detection reagent, followed by an additional 30-min incubation at 37 °C. The luminescence signal was detected using an Infinite M1000 PRO plate reader (Tecan Group Ltd., Mannedorf, Switzerland). The NCs yielded 0% inhibition (1% v/v DMSO) and standard CYP450 specific inhibitors were used as positive controls, yielding 100% inhibition (CYP450 1A2, alpha-naphthoflavone; CYP450 2C9, sulfaphenazole; CYP450 2C19, troglitazone; CYP450 2D6, quinidine; CYP450 3A4, ketoconazole).
(§2) Data analysis: The screening data were obtained in triplicate and analysed using ActivityBase (IDBS, Guildford, UK), and outlier elimination in the control wells was performed using the 3-sigma method. Unless stated, dose–response experiments were performed in the 11-point format with the IC50 value, Hill slope, minimum signal and maximum signal for each dose–response curve obtained using a four-parameter logistic fit in the XE module of ActivityBase (IDBS).

For another series, the target named is T2, hERG (Homo sapiens, UniProt Q12809).
T2 construct: purchased Thermo Fischer Scientific
The series is described as follows: hERG cardiotoxicity assay (Predictor hERG fluorescence polarization). Format: binding. The procedure: hERG cardiotoxicity assay: The Predictor® hERG fluorescence polarization assay (Thermo Fischer Scientific, Waltham, MA, USA) was used to test compounds for potential cardiotoxicity. To each well of the assay plate, 100 nL of the test/control compound was added followed by addition of 5 μL homogenized membrane solution (undiluted) and 5 μL of tracer (1 nM final concentration in the assay). The plates were incubated for 2 h at 25 °C in a humidity controlled incubator, and the fluorescence polarization was measured using an EnVision Multilabel 2103 Reader (PerkinElmer, Waltham, MA. USA). The NCs (0% inhibition) and positive controls with E-4031, a blocker of hERG-type potassium channels (yielding 100% inhibition), were used to normalize the raw data.
as §2

For a further series, the target named is T3, CYP2C9 (Homo sapiens, UniProt P11712).
T3 construct: purchased Corning Inc; host or cells: baculovirus-infected insect cells
In words: Cytochrome P450 inhibition assay (P450-Glo) CYP2C9. The series is classed as in vitro ADME.
Source text: as §1, §2

T1 sequence (P10635 whole entry): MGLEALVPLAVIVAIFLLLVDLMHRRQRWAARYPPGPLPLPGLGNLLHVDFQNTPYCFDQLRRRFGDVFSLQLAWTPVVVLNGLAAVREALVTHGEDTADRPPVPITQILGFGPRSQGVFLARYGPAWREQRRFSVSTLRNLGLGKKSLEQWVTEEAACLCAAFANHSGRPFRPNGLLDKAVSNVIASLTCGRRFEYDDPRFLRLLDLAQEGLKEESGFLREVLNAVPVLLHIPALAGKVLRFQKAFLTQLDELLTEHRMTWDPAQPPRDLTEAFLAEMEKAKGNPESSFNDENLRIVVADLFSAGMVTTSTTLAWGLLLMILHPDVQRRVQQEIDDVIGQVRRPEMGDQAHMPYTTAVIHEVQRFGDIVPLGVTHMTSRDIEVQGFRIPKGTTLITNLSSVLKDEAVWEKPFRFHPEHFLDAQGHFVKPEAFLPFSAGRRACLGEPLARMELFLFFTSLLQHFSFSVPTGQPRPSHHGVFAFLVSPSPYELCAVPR
T3 sequence (P11712 whole entry): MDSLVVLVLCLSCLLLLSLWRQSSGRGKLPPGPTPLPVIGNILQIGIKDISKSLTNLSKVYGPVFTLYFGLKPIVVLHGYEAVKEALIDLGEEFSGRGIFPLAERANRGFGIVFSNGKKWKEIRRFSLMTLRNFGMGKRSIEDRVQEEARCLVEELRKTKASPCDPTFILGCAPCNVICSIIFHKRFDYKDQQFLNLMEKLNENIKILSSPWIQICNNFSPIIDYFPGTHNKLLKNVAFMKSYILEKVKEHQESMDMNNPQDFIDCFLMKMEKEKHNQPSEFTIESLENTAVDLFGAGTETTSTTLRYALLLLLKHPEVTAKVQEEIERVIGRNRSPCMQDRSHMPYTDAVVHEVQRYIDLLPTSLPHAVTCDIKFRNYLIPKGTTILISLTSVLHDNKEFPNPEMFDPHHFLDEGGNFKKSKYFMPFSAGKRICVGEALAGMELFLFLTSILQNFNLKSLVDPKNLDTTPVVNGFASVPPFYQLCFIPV
T2 sequence (Q12809 whole entry): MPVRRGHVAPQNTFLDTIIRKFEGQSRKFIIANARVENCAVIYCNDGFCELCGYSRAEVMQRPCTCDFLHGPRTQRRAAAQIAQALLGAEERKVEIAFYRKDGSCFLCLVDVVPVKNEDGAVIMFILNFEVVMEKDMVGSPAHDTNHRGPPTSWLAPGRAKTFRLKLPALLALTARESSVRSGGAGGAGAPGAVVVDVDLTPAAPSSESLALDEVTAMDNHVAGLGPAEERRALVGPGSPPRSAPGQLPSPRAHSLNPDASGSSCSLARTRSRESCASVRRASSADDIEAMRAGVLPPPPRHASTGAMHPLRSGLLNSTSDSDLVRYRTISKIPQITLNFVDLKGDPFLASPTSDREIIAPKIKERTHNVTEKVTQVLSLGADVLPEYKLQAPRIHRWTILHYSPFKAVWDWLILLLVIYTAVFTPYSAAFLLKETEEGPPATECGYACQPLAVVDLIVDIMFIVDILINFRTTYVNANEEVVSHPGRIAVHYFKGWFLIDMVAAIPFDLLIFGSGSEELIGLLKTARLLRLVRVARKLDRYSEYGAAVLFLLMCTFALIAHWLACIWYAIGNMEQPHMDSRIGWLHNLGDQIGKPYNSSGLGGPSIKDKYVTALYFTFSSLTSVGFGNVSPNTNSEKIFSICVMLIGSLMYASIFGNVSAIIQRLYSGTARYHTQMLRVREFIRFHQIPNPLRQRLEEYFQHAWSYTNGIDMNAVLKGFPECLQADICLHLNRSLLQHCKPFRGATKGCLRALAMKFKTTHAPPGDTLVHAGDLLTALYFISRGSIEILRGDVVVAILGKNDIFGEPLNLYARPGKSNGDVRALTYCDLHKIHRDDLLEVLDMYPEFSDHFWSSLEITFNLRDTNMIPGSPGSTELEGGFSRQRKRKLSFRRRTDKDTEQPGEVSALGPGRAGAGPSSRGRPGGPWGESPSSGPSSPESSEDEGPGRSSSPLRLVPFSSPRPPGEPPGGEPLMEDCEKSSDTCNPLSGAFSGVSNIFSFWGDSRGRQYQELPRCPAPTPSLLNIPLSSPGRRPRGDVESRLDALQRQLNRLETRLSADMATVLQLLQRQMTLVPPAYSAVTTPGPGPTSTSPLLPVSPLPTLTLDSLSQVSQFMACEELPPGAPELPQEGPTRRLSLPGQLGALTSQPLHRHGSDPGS

For the molecule `CCCCCCCCc1noc(CCCCCCCCCCOP(=O)([O-])OCC[N+](C)(C)C)n1` [Compound 54, 10-(3-octyl-1,2,4-oxadiazol-5-yl)decyl (2-(trimethylammonio)ethyl) phosphate inner salt], on CYP2D6, the “% inhibition ± SD at 10 μΜ CYP2D6” value is recorded as 6.07%. For the same molecule, the “% inhibition ± SD at 10 μΜ hERG” value on hERG is 17.93%.

Take `C[N+](C)(C)CCOP(=O)([O-])OCCCCCCCCCCCn1cc(CC2CCCC2)nn1` [Compound 28, 11-(4-(cyclopentylmethyl)-1H-1,2,3-triazol-1-yl)undecyl (2-(trimethylammo nio)ethyl) phosphate inner salt]: the “% inhibition ± SD at 10 μΜ CYP2C9” value on CYP2C9 was “–23.46%”. Further, on CYP2D6, the “% inhibition ± SD at 10 μΜ CYP2D6” value is recorded as “–56.57%”. The “% inhibition ± SD at 10 μΜ hERG” value at hERG was “–3.64%”.

`C[N+](C)(C)CCOP(=O)([O-])OCCCCCCCCCCCn1cc(CCCCCCCCC(=O)O)nn1` [Compound 34, 11-(4-(8-carboxyoctyl)-1H-1,2,3-triazol-1-yl)undecyl (2-(trimethylammonio)ethyl) phosphate inner salt]: at CYP2C9, the “% inhibition ± SD at 10 μΜ CYP2C9” value is 18.94%. Further, at CYP2D6, the “% inhibition ± SD at 10 μΜ CYP2D6” value came out at 23.08%.

Turning to `CCCCCCCCCCCc1nnc(CCCCCCCCCCOP(=O)([O-])OCC[N+](C)(C)C)o1` [Compound 66, 2-(trimethylammonio)ethyl (10-(5-undecyl-1,3,4-oxadiazol-2-yl)decyl) phosphate inner salt], the “% inhibition ± SD at 10 μΜ hERG” value on hERG is given as 22.98%.

Turning to `C[N+](C)(C)CCOP(=O)([O-])OCCCCCn1cc(CCCCCCCCNC(=O)OCc2ccccc2)nn1` [Compound 31, 5-(4-(8-(((benzyloxy)carbonyl)amino)octyl)-1H-1,2,3-triazol-1-yl)pentyl (2-(trimethylammonio)ethyl) phosphate inner salt], the “% inhibition ± SD at 10 μΜ CYP2C9” value at CYP2C9 is recorded as 8.95%. In addition, at CYP2D6, the “% inhibition ± SD at 10 μΜ CYP2D6” value was found to be 11.06%. Moreover, at hERG, the “% inhibition ± SD at 10 μΜ hERG” value was “–6.43%”.

Turning to `CCCCCCCCc1noc(CCCCCOP(=O)([O-])OCC[N+](C)(C)C)n1` [Compound 53, 5-(3-octyl-1,2,4-oxadiazol-5-yl)pentyl (2-(trimethylammonio)ethyl) phosphate inner salt], the “% inhibition ± SD at 10 μΜ CYP2C9” value at CYP2C9 is reported as 5.45%. At CYP2D6, the “% inhibition ± SD at 10 μΜ CYP2D6” value is “–26.41%”. Moreover, the “% inhibition ± SD at 10 μΜ hERG” value at hERG was 8.95%.

Turning to `C[N+](C)(C)CCOP(=O)([O-])OCCCCCn1cc(CCCCCCCCN)nn1` [Compound 35, 5-(4-(8-aminooctyl)-1H-1,2,3-triazol-1-yl)pentyl (2-(trimethylammonio)ethyl) phosphate inner salt], the “% inhibition ± SD at 10 μΜ CYP2C9” value on CYP2C9 worked out at 2.57%. In addition, the “% inhibition ± SD at 10 μΜ CYP2D6” value on CYP2D6 stood at 7.26%. For the same molecule, the “% inhibition ± SD at 10 μΜ hERG” value at hERG is given as 0.10%.

Turning to `C[N+](C)(C)CCCOP(=O)([O-])OCCCCCCCCCCCn1cc(CC2CCCCC2)nn1` [Compound 33, 11-(4-(cyclohexylmethyl)-1H-1,2,3-triazol-1-yl)undecyl (3-(trimethylammonio)propyl) phosphate inner salt], on CYP2C9, the “% inhibition ± SD at 10 μΜ CYP2C9” value is reported as 19.72%. On CYP2D6, the “% inhibition ± SD at 10 μΜ CYP2D6” value came out at 9.87±6.48%. The “% inhibition ± SD at 10 μΜ hERG” value at hERG is given as 16.60 ± 2.64%.

Take `CCCCCc1cn(CCCCCCCCCCCOP(=O)([O-])OCC[N+](C)(C)C)nn1` [Compound 25, 11-(4-pentyl-1H-1,2,3-triazol-1-yl)undecyl (2-(trimethylammonio)ethyl) phosphate inner salt]: the “% inhibition ± SD at 10 μΜ CYP2C9” value on CYP2C9 is listed as “–23.11%”. Also, the “% inhibition ± SD at 10 μΜ CYP2D6” value on CYP2D6 was “–37.71%”. For the same molecule, the “% inhibition ± SD at 10 μΜ hERG” value at hERG is given as “–7.70%”.

As to `C[N+](C)(C)CCOP(=O)([O-])OCCCCCCCCCCCn1cc(CC2CCCCC2)nn1` [Compound 29, 11-(4-(cyclohexylmethyl)-1H-1,2,3-triazol-1-yl)undecyl (2-(trimethylammonio)ethyl) phosphate inner salt], the “% inhibition ± SD at 10 μΜ CYP2C9” value on CYP2C9 is recorded as “–22.63%”. The “% inhibition ± SD at 10 μΜ CYP2D6” value at CYP2D6 is given as “–46.97%”. For the same molecule, the “% inhibition ± SD at 10 μΜ hERG” value at hERG was “–4.90%”.

In the case of `CCCCCCCc1nnc(CCCCCCCCCCOP(=O)([O-])OCC[N+](C)(C)C)o1` [Compound 65, 10-(5-heptyl-1,3,4-oxadiazol-2-yl)decyl (2-(trimethylammonio)ethyl) phosphate inner salt], at CYP2C9, the “% inhibition ± SD at 10 μΜ CYP2C9” value stood at 28.32%. The “% inhibition ± SD at 10 μΜ CYP2D6” value on CYP2D6 is recorded as “–30.44%”. For the same molecule, the “% inhibition ± SD at 10 μΜ hERG” value on hERG was 8.64%.

For `CCCCCCCCCCCCCCCCOP(=O)([O-])OCC[N+](C)(C)C` [Miltefosine, hexadecylphosphocholine, reference compound], on CYP2C9, the “% inhibition ± SD at 10 μΜ CYP2C9” value is “–0.80%”. The “% inhibition ± SD at 10 μΜ CYP2D6” value at CYP2D6 is reported as 30.83%. Besides, on hERG, the “% inhibition ± SD at 10 μΜ hERG” value is listed as “–16.92%”.
